Data taken from US11045475B2, “Application of methyl 4-[9-(6-aminopuryl)]-2(s)-hydroxybutyrate in preparation of medicament for treating psoriasis and vitiligo” (SHANGHAI INSTITUTE OF MATERIA MEDICA, CHINESE ACADEMY OF …, priority 2016, dated 2021).

How the values were obtained:
[1] = tested on: psoriasis induced by imiquimod in mice; test: Imiquimod-induced psoriasis in mice, ointment treatment, PASI scoring and skin lesion photographs; assay type: in vivo, female balb/c mice; settings: 62.5 mg ointment (0.2 g per 10 g) on dorsal skin every day, observed over 15 days, FIG. 1
Description: Testing materials: the ointment base from Example 1; the methyl 4-[9-(6-aminopuryl)]-2(s)-hydroxybutyrate ointment from Example 2, and per 10 g of the ointment contains 0.2 g of methyl 4-[9-(6-aminopuryl)]-2(s)-hydroxybutyrate.
Modeling drug: Imiquimod Cream produced by SICHUAN MED-SHINE PHARMACEUTICAL CO., LTD.; SDA (State Drugs Administration) License No.: GUOYAOZHUNZI H20030128; Lot No.: 15060139.
Positive control drug: Calcipotriol Ointment produced by CHONGQING HUAPONT PHARM CO., LTD., SDA (State Drugs Administration) License No.: GUOYAOZHUNZI H20113541; Lot No.: 2015002.
Experimental animals: female balb/c mice with body weight of 18-22 g, provided by SHANGHAI SLAC LABORATORY ANIMAL CO., LTD. […]
(§1) Treatment: dorsal skin of the mice of the normal control group and model control group was applied with ointment base of 62.5 mg from Example 1 every day, and the dorsal skin of the mice of calcipotriol control group was applied with Calcipotriol Ointment of 62.5 mg every day, and the dorsal skin of the mice of ointment treatment group was applied with methyl 4-[9-(6-aminopuryl)]-2(s)-hydroxybutyrate ointment of 62.5 mg. […] Based on PASI score system, the erythema (FIG. 1A), scales (FIG. 1B) and skin thickening (FIG. 1C) of the dorsal skin were scored (0-4). […]

spleen swelling = test: Spleen weight / spleen index in imiquimod-induced psoriasis mice; assay type: in vivo, female balb/c mice; settings: after 7 days of ointment treatment, FIG. 2A, 2B
Description: (§2) FIG. 2 illustrates the inhibition of spleen swelling and T lymphocyte activation in spleen induced by imiquimod with methyl 4-[9-(6-aminopuryl)]-2(s)-hydroxybutyrate in mice. Mice models are weighed (FIG. 2A) and euthanized on Day 7 of imiquimod-induced psoriasis modeling, and spleens of the mice were weighed to calculate spleen index (FIG. 2B); naive T cells (CD3^+CD4^+CD44^−CD62L^+) ratio (FIG. 2C, 2D), and active T cells (CD3^+CD4^+CD44^+CD62L^−) ratio (FIG. 2C, 2E) are detected. *P<0.05, ***P<0.001, n≥5. The groups in FIG. 2 are the normal control group, model control group and ointment treatment group. FIG. 2C is for CD3^+CD4^+ T cells, and FIGS. 2D and 2E show the ratio of CD3^+CD4^+ T cells in all spleen lymphocytes. […]
as §1

[2] = tested on: T lymphocyte activation in spleen; test: Flow cytometry of naive and active T cells in spleen lymphocytes of imiquimod-induced psoriasis mice; assay type: in vivo, female balb/c mice; settings: after 7 days of ointment treatment, FIG. 2C-2E
Description: as §2, §1

IL-17 = IL-17 ELISA of damaged skin extract of imiquimod-induced psoriasis mice; assay type: in vivo, female balb/c mice; settings: after 7 days of ointment treatment, FIG. 3
Description: FIG. 3 illustrates the inhibition of IL-17 level in psoriatic lesions induced by imiquimod with methyl 4-[9-(6-aminopuryl)]-2(s)-hydroxybutyrate in mice. Skin of the lesions is taken on Day 7 of imiquimod-induced psoriasis modeling, and its IL-17 content is detected by ELISA. *P<0.05, n≥5. The groups in FIG. 3 are the normal control group, model control group and ointment treatment group.
Construction of animal models with psoriasis: normal control group, model control group, calcipotriol ointment control group, ointment treatment group, n=10/group. […]
as §1
The mice were weighed when the psoriasis was more serious after 7 days of treatment; the mice were sacrificed, and the spleens of each group were removed and weighed. […] Inflammatory factor (IL-17) of the extract was detected by ELISA (FIG. 3).

[3] = target: S-adenosyl-L-homocysteine hydrolase (SAHH) (Homo sapiens, UniProt P23526); settings: background statement; cited from earlier work
cells = settings: background statement; cited from earlier work
[4] = tested on: experimental autoimmune encephalomyelitis (EAE); settings: animal models, background statement; cited from earlier work
[5] = tested on: systemic lupus erythematosus (SLE); settings: animal models, background statement; cited from earlier work

S-adenosyl-L-homocysteine hydrolase (SAHH), sequence (P23526 whole entry, species assumed): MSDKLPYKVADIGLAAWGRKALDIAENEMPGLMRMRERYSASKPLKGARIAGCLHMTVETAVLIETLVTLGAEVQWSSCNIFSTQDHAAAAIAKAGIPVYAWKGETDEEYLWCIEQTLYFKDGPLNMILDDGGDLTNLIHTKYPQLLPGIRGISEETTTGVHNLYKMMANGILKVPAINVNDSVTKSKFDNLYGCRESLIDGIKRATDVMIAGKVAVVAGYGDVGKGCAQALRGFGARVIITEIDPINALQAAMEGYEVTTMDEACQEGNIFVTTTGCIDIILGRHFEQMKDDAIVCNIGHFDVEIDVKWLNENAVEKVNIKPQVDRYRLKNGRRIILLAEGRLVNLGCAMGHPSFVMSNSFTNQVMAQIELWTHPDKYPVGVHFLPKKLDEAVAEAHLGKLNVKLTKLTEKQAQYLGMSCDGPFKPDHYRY

COC(=O)C(O)CCn1cnc2c(N)ncnc21 (centres unmarked) [methyl 4-[9-(6-aminopuryl)]-2(s)-hydroxybutyrate]
PASI scores of erythema, scales, skin thickening and total score of skin lesion severity [1]: relieved psoriasis induced by imiquimod in mice effectively | spleen swelling (spleen index) (spleen swelling): improved spleen swelling in mice with psoriasis induced by imiquimod significantly | T lymphocyte activation (ratio of naive and active T cells in spleen lymphocytes) [2]: inhibited T lymphocyte activation in mice with psoriasis induced by imiquimod | level of IL-17 in the damaged skin (IL-17): inhibited the level of IL-17 in the damaged skin | type of SAHH inhibition [3]: type III inhibitor of SAHH | cytotoxicity (cells): low cytotoxicity | therapeutic effect on EAE [4]: good therapeutic effect | therapeutic effect on SLE [5]: good therapeutic effect
